Biological target: HCV NS3-4A serine protease (full-length NS3-4A protein) (Hepatitis C virus genotype 1a (isolate 1) (HCV), UniProt P26664)
Assay: HCV NS3-4A protease assay
Type: biochemical, HCV genotype 1a
Details: strain HCV-1, fluorogenic peptide substrate, read-out: Protease assay Ex. 12 IC50
Experimental: The inhibitory activity of certain compounds of Table A against HCV NS3-4A serine protease is determined in a homogenous assay using the full-length NS3-4A protein (genotype 1a, strain HCV-1) and a commercially available internally-quenched fluorogenic peptide substrate as described by Taliani, M., et al. 1996 Anal. Biochem. 240:60-67, which is incorporated by reference in its entirety.

Chain of HCV NS3-4A serine protease (full-length NS3-4A protein) (P26664 1027-1657): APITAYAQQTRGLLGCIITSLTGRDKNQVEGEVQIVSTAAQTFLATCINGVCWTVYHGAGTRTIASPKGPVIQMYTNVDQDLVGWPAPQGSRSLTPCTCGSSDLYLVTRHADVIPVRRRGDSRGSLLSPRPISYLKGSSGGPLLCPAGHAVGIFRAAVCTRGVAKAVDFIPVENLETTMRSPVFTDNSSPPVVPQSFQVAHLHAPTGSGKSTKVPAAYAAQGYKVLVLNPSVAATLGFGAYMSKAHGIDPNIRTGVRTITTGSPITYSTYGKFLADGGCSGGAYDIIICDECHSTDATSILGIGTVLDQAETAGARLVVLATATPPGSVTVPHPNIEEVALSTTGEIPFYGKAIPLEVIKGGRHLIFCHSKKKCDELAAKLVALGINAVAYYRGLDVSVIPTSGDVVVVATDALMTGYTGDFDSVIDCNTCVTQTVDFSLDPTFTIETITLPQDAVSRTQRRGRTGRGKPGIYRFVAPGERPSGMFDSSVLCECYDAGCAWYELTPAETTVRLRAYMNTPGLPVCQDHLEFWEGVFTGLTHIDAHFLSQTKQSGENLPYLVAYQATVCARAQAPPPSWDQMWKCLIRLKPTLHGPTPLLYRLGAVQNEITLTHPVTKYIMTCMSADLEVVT
Chain of HCV NS3-4A serine protease (full-length NS3-4A protein) (P26664 1658-1711 partner): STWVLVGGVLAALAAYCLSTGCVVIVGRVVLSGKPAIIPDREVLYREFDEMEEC

SMILES | IC50
C=C[C@@H]1C[C@]1(NC(=O)[C@@H]1C[C@@]2(CN1C(=O)[C@@H](NC(=O)[C@@H](NC(=O)[C@H]1CCCN1C(C)C)C1CCCCC1)C(C)(C)C)C(C)(C)C21CCC1)C(=O)NS(=O)(=O)N1CCCC1 [Compound 16, (5R,8S)-7-[(2S)-2-{[(2S)-2-cyclohexyl-2-({[(2R)-1-isopropylpyrrolidin-2-yl]carbonyl}amino)acetyl]amino}-3,3-dimethylbutanoyl]-10,10-dimethyl-N-{(1R,2S)-1-[(pyrrolidin-1-ylsulfonyl)carbamoyl]-2-vinylcyclopropyl}-7-azadispiro[3.0.4.1]decane-8-carboxamide] | 2.3 nM
C=C[C@@H]1C[C@]1(NC(=O)C1C[C@@]2(CN1C(=O)[C@@H](NC(=O)c1cccc(C(=O)NC)c1)C(C)(C)C)C(C)(C)C21CCC1)C(=O)NS(=O)(=O)N1CCCC1 (stereo partly drawn) [Compound 88, N-[(1S)-1-{[(5R)-10,10-dimethyl-8-({(1R,2S)-1-[(pyrrolidin-1-ylsulfonyl)carbamoyl]-2-vinylcyclopropyl}carbamoyl)-7-azadispiro[3.0.4.1]dec-7-yl]carbonyl}-2,2-dimethylpropyl]-N′-methylisophthalamide] | 500 nM
C=C[C@@H]1C[C@]1(NC(=O)[C@@H]1C[C@@]2(CN1C(=O)[C@@H](NC(=O)[C@@H](NC(=O)[C@@H]1CCCCN1CCF)C1CCCCC1)C(C)(C)C)C(C)(C)C21CCC1)C(=O)NS(=O)(=O)N1CCCC1 [Compound 26, (5R,8S)-7-[(2S)-2-{[(2S)-2-cyclohexyl-2-({[(2S)-1-(2-fluoroethyl)piperidin-2-yl]carbonyl}amino)acetyl]amino}-3,3-dimethylbutanoyl]-10,10-dimethyl-N-{(1R,2S)-1-[(pyrrolidin-1-ylsulfonyl)carbamoyl]-2-vinylcyclopropyl}-7-azadispiro[3.0.4.1]decane-8-carboxamide] | 15 nM
C=C[C@@H]1C[C@]1(NC(=O)[C@@H]1C[C@@]2(CN1C(=O)[C@@H](NC(=O)[C@@H](NC(=O)[C@@H]1CCCN1CC)C1CCCCC1)C1(C)CCOCC1)C(C)(C)C21CCC1)C(=O)NS(=O)(=O)N1CCCC1 [Compound 125, (5R,8S)-7-[(2S)-2-{[(2S)-2-cyclohexyl-2-({[(2S)-1-ethylpyrrolidin-2-yl]carbonyl}amino)acetyl]amino}-2-(4-methyltetrahydro-2H-pyran-4-yl)acetyl]-10,10-dimethyl-N-{(1R,2S)-1-[(pyrrolidin-1-ylsulfonyl)carbamoyl]-2-vinylcyclopropyl}-7-azadispiro[3.0.4.1]decane-8-carboxamide] | < 0.3 nM
C=C[C@@H]1C[C@]1(NC(=O)[C@@H]1C[C@@]2(CN1C(=O)[C@@H](NC(=O)[C@@H](NC(=O)[C@H]1CCCN1CC)C1CCCCC1)C(C)(C)C)C(C)(C)C21CCC1)C(=O)NS(=O)(=O)N1CCCC1 [Compound 38, (5R,8S)-7-[(2S)-2-{[(2S)-2-cyclohexyl-2-({[(2R)-1-ethylpyrrolidin-2-yl]carbonyl}amino)acetyl]amino}-3,3-dimethylbutanoyl]-10,10-dimethyl-N-{(1R,2S)-1-[(pyrrolidin-1-ylsulfonyl)carbamoyl]-2-vinylcyclopropyl}-7-azadispiro[3.0.4.1]decane-8-carboxamide] | 3.5 nM
C=C[C@@H]1C[C@]1(NC(=O)[C@@H]1C[C@@]2(CN1C(=O)[C@@H](NC(=O)[C@@H](NC(=O)[C@H]1CCCCN1C(C)C)C1CCCCC1)C(C)(C)C)C(C)(C)C21CCC1)C(=O)NS(=O)(=O)N(CC)CCC [Compound 137, (5R,8S)-7-[(2S)-2-{[(2S)-2-cyclohexyl-2-({[(2R)-1-isopropylpiperidin-2-yl]carbonyl}amino)acetyl]amino}-3,3-dimethylbutanoyl]-N-[(1R,2S)-1-({[ethyl(propyl)amino]sulfonyl}carbamoyl)-2-vinylcyclopropyl]-10,10-dimethyl-7-azadispiro[3.0.4.1]decane-8-carboxamide] | 3.5 nM
C=C[C@@H]1C[C@]1(NC(=O)[C@@H]1C[C@@]2(CN1C(=O)[C@@H](NC(=O)[C@@H](NC(=O)[C@H]1CCCN1C(C)C)C(C)(C)C)C(C)(C)C)C(C)(C)C21CCC1)C(=O)NS(=O)(=O)N1CCCC1 [Compound 21, (5R,8S)-7-[(2S)-2-{[(2S)-2-({[(2R)-1-isopropylpyrrolidin-2-yl]carbonyl}amino)-3,3-dimethylbutanoyl]amino}-3,3-dimethylbutanoyl]-10,10-dimethyl-N-{(1R,2S)-1-[(pyrrolidin-1-ylsulfonyl)carbamoyl]-2-vinylcyclopropyl}-7-azadispiro[3.0.4.1]decane-8-carboxamide] | 35 nM
C=C[C@@H]1C[C@]1(NC(=O)[C@@H]1C[C@@]2(CN1C(=O)[C@@H](NC(=O)[C@@H](NC(=O)c1cc3ccccc3n1C)C1CCCCC1)C(C)(C)C)C(C)(C)C21CCC1)C(=O)NS(=O)(=O)N1CCCC1 [Compound 178, (5R,8S)-7-{(2S)-2-[(cyclohexyl{[(1-methyl-1H-indol-2-yl)carbonyl]amino}acetyl)amino]-3,3-dimethylbutanoyl}-10,10-dimethyl-N-{(1R,2S)-1-[(pyrrolidin-1-ylsulfonyl)carbamoyl]-2-vinylcyclopropyl}-7-azadispiro[3.0.4.1]decane-8-carboxamide] | 80 nM
C=C[C@@H]1C[C@]1(NC(=O)[C@@H]1C[C@@]2(CN1C(=O)[C@@H](NC(=O)[C@@H](NC(=O)[C@@H]1CCCCN1CC(F)F)C1CCCCC1)C1CCOCC1)C(C)(C)C21CCC1)C(=O)NS(=O)(=O)N1CCCC1 [Compound 74, (5R,8S)-7-[(2S)-2-{[(2S)-2-cyclohexyl-2-({[(2S)-1-(2,2-difluoroethyl)piperidin-2-yl]carbonyl}amino)acetyl]amino}-2-(tetrahydro-2H-pyran-4-yl)acetyl]-10,10-dimethyl-N-{(1R,2S)-1-[(pyrrolidin-1-ylsulfonyl)carbamoyl]-2-vinylcyclopropyl}-7-azadispiro[3.0.4.1]decane-8-carboxamide] | 65 nM
C=C[C@@H]1C[C@]1(NC(=O)[C@@H]1C[C@@]2(CN1C(=O)[C@@H](NC(=O)[C@@H](NC(=O)[C@@H]1CCCCN1CC)C1CCCCC1)C(C)(C)C)C(C)(C)C21CCC1)C(=O)NS(=O)(=O)N(C)CC [Compound 94, (5R,8S)-7-[(2S)-2-{[(2S)-2-cyclohexyl-2-({[(2S)-1-ethylpiperidin-2-yl]carbonyl}amino)acetyl]amino}-3,3-dimethylbutanoyl]-N-[(1R,2S)-1-({[ethyl(methyl)amino]sulfonyl}carbamoyl)-2-vinylcyclopropyl]-10,10-dimethyl-7-azadispiro[3.0.4.1]decane-8-carboxamide] | 1.5 nM
CC[C@@H]1C[C@]1(NC(=O)[C@@H]1C[C@@]2(CN1C(=O)[C@@H](NC(=O)[C@@H](NC(=O)[C@@H]1CCCCN1CC)C1CCCCC1)C(C)(C)C)C(C)(C)C21CCC1)C(=O)NS(=O)(=O)N1CCCC1 [Compound 87, (5R,8S)-7-[(2S)-2-{[(2S)-2-cyclohexyl-2-({[(2S)-1-ethylpiperidin-2-yl]carbonyl}amino)acetyl]amino}-3,3-dimethylbutanoyl]-N-{(1R,2R)-2-ethyl-1-[(pyrrolidin-1-ylsulfonyl)carbamoyl]cyclopropyl}-10,10-dimethyl-7-azadispiro[3.0.4.1]decane-8-carboxamide] | 7 nM
C=C[C@@H]1C[C@]1(NC(=O)[C@@H]1C[C@@]2(CN1C(=O)[C@@H](NC(=O)[C@@H](NC(=O)C1CN(C(C)C)C1)C1CCCCC1)C(C)(C)C)C(C)(C)C21CCC1)C(=O)NS(=O)(=O)N1CCCC1 [Compound 19, (5R,8S)-7-[(2S)-2-{[(2S)-2-cyclohexyl-2-{[(1-isopropylazetidin-3-yl)carbonyl]amino}acetyl]amino}-3,3-dimethylbutanoyl]-10,10-dimethyl-N-{(1R,2S)-1-[(pyrrolidin-1-ylsulfonyl)carbamoyl]-2-vinylcyclopropyl}-7-azadispiro[3.0.4.1]decane-8-carboxamide] | 55 nM
C=C[C@@H]1C[C@]1(NC(=O)[C@@H]1C[C@@]2(CN1C(=O)[C@@H](NC(=O)[C@@H](NC(=O)[C@@H]1CCCCN1C)C1CCCCC1)C(C)(C)C)C(C)(C)C21CCC1)C(=O)NS(=O)(=O)N(C)CC [Compound 93, (5R,8S)-7-[(2S)-2-{[(2S)-2-cyclohexyl-2-({[(2S)-1-methylpiperidin-2-yl]carbonyl}amino)acetyl]amino}-3,3-dimethylbutanoyl]-N-[(1R,2S)-1-({[ethyl(methyl)amino]sulfonyl}carbamoyl)-2-vinylcyclopropyl]-10,10-dimethyl-7-azadispiro[3.0.4.1]decane-8-carboxamide] | 2 nM
C=C[C@@H]1C[C@]1(NC(=O)[C@@H]1C[C@@]2(CN1C(=O)[C@@H](NC(=O)[C@@H](NC(=O)[C@@H]1CCCCN1CCF)C1CCCCC1)C1CCOCC1)C(C)(C)C21CCC1)C(=O)NS(=O)(=O)N1CCCC1 [Compound 75, (5R,8S)-7-[(2S)-2-{[(2S)-2-cyclohexyl-2-({[(2S)-1-(2-fluoroethyl)piperidin-2-yl]carbonyl}amino)acetyl]amino}-2-(tetrahydro-2H-pyran-4-yl)acetyl]-10,10-dimethyl-N-{(1R,2S)-1-[(pyrrolidin-1-ylsulfonyl)carbamoyl]-2-vinylcyclopropyl}-7-azadispiro[3.0.4.1]decane-8-carboxamide] | 30 nM
C=C[C@@H]1C[C@]1(NC(=O)[C@@H]1C[C@@]2(CN1C(=O)[C@@H](NC(=O)[C@@H](NC(=O)c1cc3ccccc3[nH]1)C1CCCCC1)C(C)(C)C)C(C)(C)C21CCC1)C(=O)NS(=O)(=O)N1CCCC1 [Compound 188, (5R,8S)-7-[(2S)-2-({cyclohexyl[(1H-indol-2-ylcarbonyl)amino]acetyl}amino)-3,3-dimethylbutanoyl]-10,10-dimethyl-N-{(1R,2S)-1-[(pyrrolidin-1-ylsulfonyl)carbamoyl]-2-vinylcyclopropyl}-7-azadispiro[3.0.4.1]decane-8-carboxamide] | 20 nM

Source: patent publication US8613914B2, “Peptidomimetic sulfamide compounds and antiviral uses thereof” (Novartis AG, priority 2009, dated 2013)
